For the experiment, the target named is T1, canine TRPM8 (Canis lupus familiaris, UniProt Q1A7N1).
T1 construct: expressed in transfected cells
The experiment in a line: In vitro canine TRPM8 functional assay (Ca2+-sensitive dye, FLIPR/FDSS, icilin activation). The class given is cell-based. The conditions noted are these: HEK293 cells expressing canine TRPM8, icilin activation; for % I (0.5 μM): 0.5 μM compound; for IC50: eight-point dose-response. The protocol:
The functional activity of compounds of Formula (I) was determined by measuring changes in intracellular calcium concentration using a Ca^2+-sensitive fluorescent dye. The changes in fluorescent signal were monitored by a fluorescence plate reader, either a FLIPR™ (Molecular Devices) or FDSS (Hamamatsu).
HEK293 cells stably expressing canine TRPM8 were routinely grown as monolayers in Dulbecco's minimum essential medium supplemented with 10% FBS, 1 mM L-glutamine, 100 units/mL penicillin, 100 ug/mL streptomycin and 400 μg/mL G418. Cells were maintained in 5% CO2 at 37° C. At 24 hrs prior to assay, cells were seeded in clear-base poly-D-lysine coated 384-well plates (BD Biosciences, NJ, USA) at a density of 5,000 cells per well in culture medium and grown overnight in 5% CO2 at 37° C. On assay day, growth media was removed and cells were loaded with Calcium 3 Dye (Molecular Devices) for 35 min at 37° C., under 5% CO2 and then for 25 min at room temperature and atmosphere. Subsequently, cells were tested for agonist-induced increases in intracellular Ca^2+ levels using FLIPR™ or FDSS. Cells were challenged with a compound of Formula (I) (at varying concentrations) and intracellular Ca^2+ was measured for 5 min prior to the addition of icilin to all wells to achieve a final concentration which produces approximately an 80% maximal response.
Basal FI was subtracted prior to normalizing data to percent of maximal response. Curves were generated using the average of quadruplicate wells for each data point, were analyzed using nonlinear regression of either sigmoidal dose response or sigmoidal dose response (variable slope). Finally, the EC50 and IC50 values were calculated with the best-fit dose curve determined by GraphPad Prism.

Several values for one entry are separate records, joined by “and”; a condition that tells them apart may be missing. Equal entries are not always repeated. Where two headings read alike, the source gives them in different places.

T1 sequence (Q1A7N1 1-1104): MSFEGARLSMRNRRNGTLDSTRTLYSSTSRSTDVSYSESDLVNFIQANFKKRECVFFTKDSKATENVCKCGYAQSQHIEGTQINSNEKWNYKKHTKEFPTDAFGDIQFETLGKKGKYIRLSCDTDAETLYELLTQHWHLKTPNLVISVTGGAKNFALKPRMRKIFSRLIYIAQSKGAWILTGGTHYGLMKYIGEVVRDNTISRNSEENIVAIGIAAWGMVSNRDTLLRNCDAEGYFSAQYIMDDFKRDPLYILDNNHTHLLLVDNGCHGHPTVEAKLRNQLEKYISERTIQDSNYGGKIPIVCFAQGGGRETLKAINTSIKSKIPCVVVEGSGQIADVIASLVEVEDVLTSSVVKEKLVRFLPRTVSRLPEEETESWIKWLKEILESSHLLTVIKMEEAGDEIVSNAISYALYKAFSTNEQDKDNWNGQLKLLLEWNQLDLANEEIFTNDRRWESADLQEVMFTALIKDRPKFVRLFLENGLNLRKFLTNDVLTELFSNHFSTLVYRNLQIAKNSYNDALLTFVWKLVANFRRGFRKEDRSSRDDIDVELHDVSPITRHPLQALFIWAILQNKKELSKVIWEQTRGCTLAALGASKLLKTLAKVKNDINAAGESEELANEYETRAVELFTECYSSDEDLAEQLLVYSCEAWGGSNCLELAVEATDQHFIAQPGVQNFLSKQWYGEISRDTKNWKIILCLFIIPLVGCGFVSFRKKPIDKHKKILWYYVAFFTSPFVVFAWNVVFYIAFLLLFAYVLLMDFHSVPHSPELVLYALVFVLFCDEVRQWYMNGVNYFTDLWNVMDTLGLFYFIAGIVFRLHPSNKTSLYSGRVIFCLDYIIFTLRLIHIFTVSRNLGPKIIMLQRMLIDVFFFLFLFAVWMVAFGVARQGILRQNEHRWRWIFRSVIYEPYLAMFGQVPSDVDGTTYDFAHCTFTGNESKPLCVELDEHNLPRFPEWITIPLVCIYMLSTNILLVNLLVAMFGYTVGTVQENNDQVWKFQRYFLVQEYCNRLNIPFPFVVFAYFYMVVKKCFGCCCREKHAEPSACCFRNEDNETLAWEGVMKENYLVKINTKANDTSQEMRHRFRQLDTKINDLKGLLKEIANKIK

As to `CCOP(=O)(OCC)C(Cc1ccc(F)c(F)c1)c1sc2ccccc2c1-c1ccccc1F` (racemic) [Cpd 216], the “% I (0.5 μM)” value was determined as 100%. For the setting “read-out: IC50”, the IC50 (commonly the concentration needed to halve the response being measured) was found to be 0.126 µM.
The corresponding values for `CCOP(=O)(OCC)C(Cc1ccc(F)c(F)c1)c1sc2ccccc2c1-c1cccc(C(N)=O)c1` (racemic) [Cpd 218] are 79% and 0.483 µM.
Take `CCOP(=O)(OCC)C(Cc1ccc(F)c(F)c1)c1sc2ccccc2c1-c1cccc(C(=O)OC)c1` (racemic) [Cpd 219]: the “% I (0.5 μM)” value is recorded as 68%.
For `CCOP(=O)(OCC)C(Cc1ccc(F)c(F)c1)c1sc2ccccc2c1-c1ccc(F)cc1` (racemic) [Cpd 220], the “% I (0.5 μM)” value is 101%. For the same compound, for the setting “read-out: IC50”, the IC50 worked out at 0.207 µM.
For `CC(C)OP(=O)(OC(C)C)C(Cc1ccc(F)c(C(F)(F)F)c1)c1sc2cccc(F)c2c1Br` (racemic) [Cpd 222], the “% I (0.5 μM)” value came to 103%. For the same compound, where the note is “read-out: IC50”, the half-inhibitory concentration (IC50) was 0.033 µM.
The corresponding values for `CCOP(=O)(OCC)C(Cc1ccc(F)c(C(F)(F)F)c1)c1sc2cccc(F)c2c1Br` (racemic) [Cpd 223] are 102% and 0.052 µM.
`CCOP(=O)(OCC)C(Cc1ccc(F)c(F)c1)c1sc2cccc(F)c2c1Br` (racemic) [Cpd 224]: the “% I (0.5 μM)” value is given as 102%. For the same compound, the IC50 (read-out: IC50) was 0.044 µM.
As to `CCOP(=O)(OCC)C(Cc1ccc(O)c(F)c1)c1sc2ccccc2c1Br` (racemic) [Cpd 226], the “% I (0.5 μM)” value is given as 34%.
Still for that read-out and setting: with `CC(C)OP(=O)(OC(C)C)C(Cc1ccc(O)c(F)c1)c1sc2ccccc2c1Br` (racemic) [Cpd 227] the figure was 52%.
For the compound `CCOP(=O)(OCC)C(Cc1c(F)c(F)c(O)c(F)c1F)c1sc2ccccc2c1Br` (racemic) [Cpd 228], the “% I (0.5 μM)” value worked out at 94%. For the same compound, the IC50 (read-out: IC50) is 0.129 µM.
The corresponding values for `CC(C)OP(=O)(OC(C)C)C(Cc1c(F)c(F)c(O)c(F)c1F)c1sc2ccccc2c1Br` (racemic) [Cpd 229] are 95% and 0.156 µM.
In the same order, the values of `CC(C)OP(=O)(OC(C)C)C(Cc1cccc(O)c1F)c1sc2ccccc2c1Br` (racemic) [Cpd 230] are 97% and 0.01 µM.
In the same order, the values of `CCOP(=O)(OCC)C(Cc1cc(O)c(Cl)cc1F)c1sc2ccccc2c1Br` (racemic) [Cpd 231] are 98% and 0.122 µM.
For the compound `CC(C)OP(=O)(OC(C)C)C(Cc1cc(O)c(Cl)cc1F)c1sc2ccccc2c1Br` (racemic) [Cpd 232], the “% I (0.5 μM)” value came to 99%. Further, where the note is “read-out: IC50”, the IC50 was 0.063 µM.
Consider `CCOP(=O)(OCC)C(Cc1ccc(O)c(C(F)(F)F)c1)c1sc2ccccc2c1Br` (racemic) [Cpd 233], for which the “% I (0.5 μM)” value was 70%.
In the case of `CCOP(=O)(OCC)C(Cc1ccc(F)cc1C(F)(F)F)c1sc2ccccc2c1Br` (racemic) [Cpd 245], the “% I (0.5 μM)” value turned out to be 103%. Also, for the setting “read-out: IC50”, the IC50 is 0.124 µM.
In the same order, the values of `CCOP(=O)(OCC)C(Cc1ccc(SC)cc1)c1sc2ccccc2c1Br` (racemic) [Cpd 247] are 103% and 0.121 µM.
The corresponding values for `CC(C)OP(=O)(OC(C)C)C(Cc1ccc(F)c(Cl)c1)c1sc2ccccc2c1Br` (racemic) [Cpd 248] are 104% and 0.021 µM.
The corresponding values for `CCOP(=O)(OCC)C(Cc1ccccc1C(F)(F)F)c1sc2ccccc2c1Cl` (racemic) [Cpd 279] are 97% and 0.291 µM.
Turning to `CCOP(=O)(OCC)C(Cc1cccc(C(F)(F)F)c1Cl)c1sc2ccccc2c1Cl` (racemic) [Cpd 280], the “% I (0.5 μM)” value was 101%. The IC50 (read-out: IC50) came out at 0.227 µM.
In the same order, the values of `CCOP(=O)(OCC)C(Cc1cccc(C(F)(F)F)c1F)c1sc2ccccc2c1Cl` (racemic) [Cpd 281] are 102% and 0.131 µM.
In the same order, the values of `CCOP(=O)(OCC)C(Cc1cc(C(F)(F)F)cc(C(F)(F)F)c1)c1sc2ccccc2c1Cl` (racemic) [Cpd 282] are 100% and 0.235 µM.
As for `CCOP(=O)(OCC)C(Cc1ccc(SC(F)(F)F)cc1)c1sc2ccccc2c1Cl` (racemic) [Cpd 283], the “% I (0.5 μM)” value is reported as 103%. Further, the IC50 (read-out: IC50) was found to be 0.125 µM.
With `CCOP(=O)(OCC)C(Cc1ccc(F)cc1)c1sc2ccccc2c1Cl` (racemic) [Cpd 284], the “% I (0.5 μM)” value is 103% and 102%. Moreover, for the setting “read-out: IC50”, the IC50 was 0.079 µM and 0.065 µM.
In the case of `CCOP(=O)(OCC)C(Cc1ccc(C(F)(F)F)cc1)c1sc2ccccc2c1Cl` (racemic) [Cpd 285], the “% I (0.5 μM)” value is 103%. Besides, the IC50 (read-out: IC50) turned out to be 0.125 µM.
In the same order, the values of `CCOP(=O)(OCC)C(Cc1cc(C(F)(F)F)ccc1F)c1sc2ccccc2c1Cl` (racemic) [Cpd 286] are 102% and 0.127 µM.
`CCOP(=O)(OCC)C(Cc1ccc(Cl)c(C(F)(F)F)c1)c1sc2ccccc2c1Cl` (racemic) [Cpd 287]: the “% I (0.5 μM)” value is reported as 103%. Besides, the half-inhibitory concentration (IC50) (read-out: IC50) worked out at 0.124 µM.
In the same order, the values of `CC(C)OP(=O)(OC(C)C)C(Cc1ccc(Cl)cc1)c1sc2ccccc2c1Br` (racemic) [Cpd 288] are 103% and 0.065 µM.
The corresponding values for `CC(C)OP(=O)(OC(C)C)C(Cc1ccc(C(F)(F)F)cc1F)c1sc2ccccc2c1Br` (racemic) [Cpd 289] are 103% and 0.051 µM.
The corresponding values for `CCOP(=O)(OCC)C(Cc1cccc(Cl)c1)c1sc2ccccc2c1Cl` (racemic) [Cpd 290] are 103% and 0.115 µM.
`CCOP(=O)(OCC)C(Cc1ccc(C(F)(F)F)cc1F)c1sc2ccccc2c1Cl` (racemic) [Cpd 291]: the “% I (0.5 μM)” value turned out to be 103%. Further, the IC50 (read-out: IC50) is 0.156 µM.
In the case of `CCOP(=O)(OCC)C(Cc1ccc(OC)c(C(F)(F)F)c1)c1sc2ccccc2c1Cl` (racemic) [Cpd 292], the “% I (0.5 μM)” value was 99%. For the setting “read-out: IC50”, the IC50 came out at 0.216 µM.
The corresponding values for `CCOP(=O)(OCC)C(Cc1ccc(Cl)cc1)c1sc2ccccc2c1Cl` (racemic) [Cpd 293] are 103% and 0.156 µM.
Regarding `CCOP(=O)(OCC)C(Cc1ccc(F)c(C(F)(F)F)c1)c1sc2ccccc2c1Cl` (racemic) [Cpd 294], the “% I (0.5 μM)” value is 103%. In addition, the half-maximal inhibitory concentration (IC50) (read-out: IC50) is 0.118 µM.
With `CCOP(=O)(OCC)C(Cc1cccc(Br)c1)c1sc2ccccc2c1Br` (racemic) [Cpd 295], the “% I (0.5 μM)” value was 102% and 103%. Moreover, under “read-out: IC50”, the IC50 is 0.031 µM and 0.016 µM.
As to `CCOP(=O)(OCC)C(Cc1ccc(F)c(Cl)c1)c1sc2ccccc2c1Cl` (racemic) [Cpd 297], the “% I (0.5 μM)” value came out at 103%. Moreover, the IC50 (read-out: IC50) turned out to be 0.04 µM.
The corresponding values for `CCOP(=O)(OCC)C(Cc1ccc(S(=O)(=O)C(F)(F)F)cc1)c1sc2ccccc2c1Cl` (racemic) [Cpd 300] are 103% and 0.089 µM.
The corresponding values for `CC(C)OP(=O)(OC(C)C)C(Cc1cccc(OC(F)(F)F)c1)c1sc2ccccc2c1Cl` (racemic) [Cpd 301] are 102% and 0.054 µM.
In the same order, the values of `CC(C)OP(=O)(OC(C)C)C(Cc1ccc(Cl)c(F)c1)c1sc2ccccc2c1Cl` (racemic) [Cpd 302] are 103% and 0.079 µM.
Consider `CC(C)OP(=O)(OC(C)C)C(Cc1cc(Cl)ccc1F)c1sc2ccccc2c1Cl` (racemic) [Cpd 303], for which the “% I (0.5 μM)” value is 102%. Where the note is “read-out: IC50”, the IC50 was 0.049 µM.
Consider `CC(C)OP(=O)(OC(C)C)C(Cc1ccc(SC(F)(F)F)cc1)c1sc2ccccc2c1Cl` (racemic) [Cpd 304], for which the “% I (0.5 μM)” value came to 102%. In addition, for the setting “read-out: IC50”, the IC50 amounted to 0.028 µM.
In the case of `CCOP(=O)(OCC)C(Cc1cc(Cl)ccc1F)c1sc2ccccc2c1Cl` (racemic) [Cpd 305], the “% I (0.5 μM)” value is 102%. Moreover, where the note is “read-out: IC50”, the IC50 is 0.07 µM.
As to `CC(C)OP(=O)(OC(C)C)C(Cc1ccc(F)cc1)c1sc2ccccc2c1Cl` (racemic) [Cpd 306], the “% I (0.5 μM)” value was 101% and 102%.
As for `CCOP(=O)(OCC)C(Cc1cc(Cl)ccc1F)c1sc2ccccc2c1Br` (racemic) [Cpd 307], the “% I (0.5 μM)” value was 103%. Besides, the IC50 (read-out: IC50) is 0.026 µM.
In the same order, the values of `CC(C)OP(=O)(OC(C)C)C(Cc1cc(Cl)ccc1F)c1sc2ccccc2c1Br` (racemic) [Cpd 308] are 103% and 0.017 µM.
Take `CCOP(=O)(OCC)C(Cc1ccc(F)c(F)c1)c1sc2cccc(F)c2c1C` (stereo not drawn) [Cpd 3, [2-(3,4-Difluoro-phenyl)-1-(4-fluoro-3-methyl-benzo[b]-thiophene-2-yl)-ethyl]-phosphonic acid diethyl ester]: the inhibition at 1 µM (HEK293, read-out: % I (1 μM), 1 μM compound) came out at 100%. Also, the IC50 (IC50 (μM)) is 0.012 µM and 0.051 µM.

These data come from patent publication US20080287398A1, “COLD MENTHOL RECEPTOR-1 ANTAGONISTS” (priority 2007, published 2008).
